We go through 1 compound from patent publication US20250177425A1, “SAIKOSAPONIN C AS COMPOSITION FOR TREATING OR PREVENTING AGE-RELATED VASCULAR DISEASES INCLUDING ARTERIOSCLEROSIS” (AGINGTARGET, INC., priority 2022, published 2025).

Experiment [1] has as its system HPAEC. Nature of the experiment: MTT assay, high glucose-induced growth inhibition. The experiment is classed as cell-based, human. To be noted: 5 μM and 20 μM pretreatment 2 hours, 33 mM high glucose 72 hours, dose-dependent. As to the method: (§1) A high-fat diet test system at the cellular level was established using 33 mM high glucose (HG), which is 6 times the standard glucose concentration of 5.5 mM in the vascular endothelial cell culture medium.
(§2) Specifically, two types of endothelial cells, namely, human umbilical vein endothelial cells (HUVECs) and human pulmonary artery endothelial cells (HPAECs), were pretreated with 5 μM and 20 μM of Saikosaponin C (SSc) for 2 hours, and then treated with 33 mM of high glucose for 72 hours. Then, cell growth was analyzed using the MTT assay, which measures the mitochondrial metabolic capacity of living cells.
(§3) Endothelial cell growth was assessed by measuring the absorbance of MTT formazan at a wavelength of 590 nm.

In experiment [2] the test system is HUVEC. Nature of the experiment: MTT assay, high glucose-induced growth inhibition. The experiment is classed as cell-based, human. Conditions: 5 μM and 20 μM pretreatment 2 hours, 33 mM high glucose 72 hours, dose-dependent. The procedure:
as §1, §2, §3
For orientation: Tetrazolium dyes change colour on reduction, which living cells bring about.

In experiment [3] the test system is PAI-1, ICAM-1, and VCAM-1 in HPAEC. Description: Western blotting of vascular senescence marker proteins. The experiment is classed as cell-based, human. To be noted: 5 μM and 20 μM pretreatment 2 hours, 33 mM high glucose 48 hours, dose-dependent. As to the method:
(§4) Similar to Experimental Example 1, a high-fat diet evaluation system at the cellular level was established.
(§5) Specifically, two types of vascular endothelial cells, namely, HUVEC and HPAEC cells, were pretreated with Saikosaponin C at concentrations of 5 μM and 20 μM for 2 hours, and then treated with high glucose at a concentration of 33 mM for 72 hours (for SA-β-gal staining) or 48 hours (for vascular senescence marker protein analysis). Then, the degree of cellular senescence was measured through SA-β-gal staining and measured as the ratio of the total cells to cells stained in blue (SA-β-gal positive). In addition, the expression of vascular senescence marker proteins such as PAI-1, ICAM-1, and VCAM-1 was analyzed.
(§6) Specifically, the senescence of vascular endothelial cells was evaluated by SA-β-gal staining to measure the activity of β-galactosidase, which is an enzyme present in the lysosome, an organelle within the cell (FIG. 3C and FIG. 3D) and this was represented as a graph (FIG. 3A and FIG. 3B). In addition, FIGS. 3E and 3F show the results of Western blotting to determine the expression of vascular senescence marker proteins such as PAI-1, ICAM-1, and VCAM-1 in two types of vascular endothelial cells (HUVEC, HPAEC).
(In general: Immunoblotting shows a protein as a band on a membrane.)

The test system of experiment [4] is PAI-1, ICAM-1, and VCAM-1 in HUVEC. The description is as above. It is filed as cell-based, human. To be noted: 5 μM and 20 μM pretreatment 2 hours, 33 mM high glucose 48 hours, dose-dependent. The procedure: as §4, §5, §6
Experiment [5] relates to HPAEC. Nature of the experiment: Fluorescence image analysis of high glucose-induced ROS generation. The experiment is classed as cell-based, human. To be noted: 5 μM and 20 μM pretreatment 2 hours, 33 mM high glucose 24 hours, dose-dependent. The procedure: as §4
(§7) Specifically, two types of vascular endothelial cells, namely, HUVEC and HPAEC cells, were pretreated with Saikosaponin C at concentrations of 5 μM and 20 μM for 2 hours, and then treated with high glucose at a concentration of 33 mM for 24 hours. Then, hydrogen peroxide (H2O2) and superoxide anion (O2^⋅−) generated in the cytoplasm and mitochondria were measured using each fluorescent probe. In addition, samples treated with 100 μM hydrogen peroxide (a ROS-inducing agent) for 1 hour and then treated for an additional 23 hours after medium change were used as positive control groups.
(§8) Different analytical reagents were used depending on the type of ROS and the intracellular location where they were generated. Specifically, cytosolic hydrogen peroxide, cytosolic superoxide anion, mitochondrial hydrogen peroxide, and mitochondrial superoxide anion were measured using H2DCFDA (2,7-dichlorodihydrofluorescein diacetate), DHE (dihydroethidium), DHR (dihydrorhodamine 123), and Mito-SOX reagents, respectively. The H2DCFDA (1 μM, 45 min staining), DHE (10 µM, 60 min staining), DHR (20 µM, 30 min staining), and Mito-SOX (5 μM, 10 min staining) were used as ROS-specific fluorescent probes for fluorescence image analysis.

Experiment [6] has as its system HUVEC. Described as above. To be noted: 5 μM and 20 μM pretreatment 2 hours, 33 mM high glucose 24 hours, dose-dependent. It is filed as cell-based, human. As to the method:
as §4, §7, §8

In experiment [7] the test system is ICAM-1 and VCAM-1 in HCAEC. Description: Western blotting of adhesion proteins after TNF-α. The experiment is classed as cell-based, human. To be noted: 5 μM and 20 μM pretreatment 2 hours, TNF-α 20 ng/ml 8 hours. The procedure:
(§9) Specifically, two types of vascular endothelial cells, namely, HUVEC (human umbilical vein endothelial cells) and HCAEC (human coronary artery endothelial cells), were pretreated with Saikosaponin C at concentrations of 5 μM and 20 μM for 2 hours, and then treated with TNF-α (20 ng/ml) for 8 hours. Then, adhesion of monocyte-vascular endothelial cell and expression of cell adhesion molecules (ICAM-1, VCAM-1) of vascular endothelial cells were observed. […] The adhesion of monocyte-endothelial cells was evaluated by imaging analysis using a confocal microscope and fluorescence analysis using a microplate reader, and expression of adhesion proteins (ICAM-1 and VCAM-1) was evaluated by Western blotting.
(§10) Calcein AM fluorescence was analyzed using a confocal microscope and a microplate reader, and the expression of cell adhesion proteins (ICAM-1, VCAM-1) were evaluated through Western blotting.
(§11) FIGS. 9A and 9B show the results of analysis of monocyte-endothelial cell adhesion in two types of vascular endothelial cells (HUVEC, HCAEC) using a confocal microscope, and FIGS. 9C and 9D show the results of analysis of Calcein AM fluorescence (at an excitation wavelength of 488 nm, and at an emission wavelength of 517 nm) in the same experiment using a microplate reader. […]

Experiment [8] deals with ICAM-1 and VCAM-1 in HUVEC. Description: Western blotting of adhesion proteins after TNF-α. Conditions: 5 μM and 20 μM pretreatment 2 hours, TNF-α 20 ng/ml 8 hours. The experiment is classed as cell-based, human. As to the method: as §9, §10, §11
Experiment [9] deals with THP-1 cells differentiated into macrophages. Description: Macrophage foam cell formation by ox-LDL (Oil Red O staining). The experiment is classed as cell-based, human. To be noted: PMA-differentiated THP-1 macrophages; 5 μM and 20 μM pretreatment 2 hours, ox-LDL 100 μg/ml 24 hours. As to the method:
The differentiated macrophages were pretreated with Saikosaponin C at concentrations of 5 μM and 20 μM for 2 hours, and then treated with oxidized LDL (ox-LDL) (100 μg/ml), a foam cell inducer, for 24 hours. Then, the formation of foam cells from macrophages was observed. The foam cell formation was evaluated by microscopic analysis after Oil Red O staining of adsorbed lipid molecules and absorbance analysis using a microplate reader.
The nucleus was stained with hematoxylin dye for 1 minute.

For the next experiment, the target named is NLRP3 inflammasome (Homo sapiens, UniProt Q96P20). Nature of the experiment: NLRP3 inflammasome activity: caspase-1 cleavage (Western blotting). Conditions: PMA-differentiated THP-1 macrophages; 20 μM pretreatment 2 hours, MSU 200 μg/ml 6 hours.
Chain of NLRP3 inflammasome (Q96P20 whole entry): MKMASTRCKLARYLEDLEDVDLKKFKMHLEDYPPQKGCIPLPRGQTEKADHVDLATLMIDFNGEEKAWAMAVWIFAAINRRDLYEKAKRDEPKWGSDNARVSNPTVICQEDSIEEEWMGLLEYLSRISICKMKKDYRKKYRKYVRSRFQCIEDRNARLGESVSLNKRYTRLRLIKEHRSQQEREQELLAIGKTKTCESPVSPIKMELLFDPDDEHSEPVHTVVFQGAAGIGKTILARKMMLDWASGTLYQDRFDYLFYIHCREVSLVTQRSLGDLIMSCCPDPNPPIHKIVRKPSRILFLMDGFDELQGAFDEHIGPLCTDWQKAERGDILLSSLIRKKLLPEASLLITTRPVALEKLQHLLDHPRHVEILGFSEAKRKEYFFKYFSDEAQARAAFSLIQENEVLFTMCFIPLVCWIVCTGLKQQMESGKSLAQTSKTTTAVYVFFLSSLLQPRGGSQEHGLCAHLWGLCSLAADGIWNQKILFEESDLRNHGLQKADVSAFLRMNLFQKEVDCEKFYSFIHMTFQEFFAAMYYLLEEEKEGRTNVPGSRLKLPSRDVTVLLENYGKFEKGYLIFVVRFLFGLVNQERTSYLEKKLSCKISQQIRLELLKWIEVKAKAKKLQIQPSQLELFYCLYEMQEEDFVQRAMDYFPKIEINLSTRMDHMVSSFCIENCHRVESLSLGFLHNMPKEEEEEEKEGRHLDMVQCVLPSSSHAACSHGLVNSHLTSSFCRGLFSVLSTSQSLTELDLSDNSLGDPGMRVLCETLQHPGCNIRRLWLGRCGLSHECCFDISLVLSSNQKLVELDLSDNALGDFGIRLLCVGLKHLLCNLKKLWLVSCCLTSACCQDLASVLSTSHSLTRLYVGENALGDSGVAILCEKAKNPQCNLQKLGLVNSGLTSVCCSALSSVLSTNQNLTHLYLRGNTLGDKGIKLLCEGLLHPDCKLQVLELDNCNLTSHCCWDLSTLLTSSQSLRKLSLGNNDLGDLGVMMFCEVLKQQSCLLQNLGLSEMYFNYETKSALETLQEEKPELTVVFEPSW

In the case of `CC1O[C@@H](O[C@@H]2C(CO[C@@H]3OC(CO)[C@@H](O)C(O)C3O)O[C@@H](O[C@H]3CC[C@]4(C)[C@H]5C=C[C@]67OC[C@@]8(CCC(C)(C)C[C@H]86)[C@@H](O)C[C@@]7(C)[C@]5(C)CC[C@H]4C3(C)C)C(O)C2O)C(O)C(O)[C@H]1O` (stereo partly shown) [Saikosaponin C], the “high glucose-induced cell growth inhibition (MTT)” value with HPAEC [1] and in the experiment with HUVEC [2] was “significantly alleviated” throughout. For the same compound, the “expression of vascular senescence marker proteins PAI-1, ICAM-1, and VCAM-1” value in experiment [3] and in experiment [4] was “reduced” throughout. The “high glucose-induced ROS generation (cytosolic and mitochondrial hydrogen peroxide and superoxide anion)” value in the experiment on HPAEC [5] and in the experiment with HUVEC [6] was “significantly suppressed” in each case. The “expression of adhesion proteins (ICAM-1, VCAM-1) of vascular endothelial cells” value in experiment [7] and in experiment [8] was “inhibited” throughout. The “foam cell formation by lipid deposition (Oil Red O)” value in [9] is “suppressed”. Moreover, the caspase-1 cleavage result at NLRP3 inflammasome is on record as “inhibited”.
